# Measurements from ChEMBL document CHEMBL4507257, “Data for DCP probe ABT-100” (2021).
# Tests used:
# [1] = biological target: Neuropeptide Y receptor type 1 (Homo sapiens) (UniProt P25929); assay: Y1 (h) Ligand binding assay; settings: Compound concentration 10.0 uM
# [2] = biological target: D(1A) dopamine receptor (Homo sapiens) (UniProt P21728); assay: D1 (h) Ligand binding assay; settings: Compound concentration 10.0 uM
# [3] = biological target: T1, Muscarinic acetylcholine receptor M4 (Homo sapiens) (UniProt P08173); assay: M4 (h) Ligand binding assay; settings: Compound concentration 10.0 uM
# T1 sequence (whole entry): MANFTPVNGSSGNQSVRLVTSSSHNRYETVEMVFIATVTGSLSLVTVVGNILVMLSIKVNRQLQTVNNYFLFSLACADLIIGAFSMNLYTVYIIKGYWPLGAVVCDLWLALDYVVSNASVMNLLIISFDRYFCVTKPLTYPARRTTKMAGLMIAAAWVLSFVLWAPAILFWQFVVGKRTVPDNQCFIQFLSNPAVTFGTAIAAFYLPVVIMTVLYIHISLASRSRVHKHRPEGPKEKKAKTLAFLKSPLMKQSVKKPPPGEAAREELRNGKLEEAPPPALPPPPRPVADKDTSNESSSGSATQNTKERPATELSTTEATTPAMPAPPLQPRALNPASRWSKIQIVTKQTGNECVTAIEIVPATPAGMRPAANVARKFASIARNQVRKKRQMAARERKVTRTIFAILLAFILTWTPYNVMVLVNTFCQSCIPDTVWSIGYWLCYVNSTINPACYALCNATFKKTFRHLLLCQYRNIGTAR
# [4] = biological target: GABA-A receptor; anion channel (Rattus norvegicus) (UniProt O09028+P15431+P18506+P18508+P19969+P20236+P23574+P23576+P28471+P28473+P30191+P62813+P63079+P63138+Q91ZM7+Q9ES14); settings: Compound concentration 10.0 uM
# [5] = biological target: Neuropeptide Y receptor type 2 (Homo sapiens) (UniProt P49146); assay: Y2 (h) Ligand binding assay; settings: Compound concentration 10.0 uM
# [6] = biological target: voltage-dependent potassium channel (Homo sapiens, UniProt O43525+O43526+O95259+P16389+P17658+P22001+P22459+P22460+P48547+P51787+P56696+Q03721+Q09470+Q12809+Q14003+Q14721+Q16322+Q6PIU1+Q8NCM2+Q8TAE7+Q8TDN1+Q8TDN2+Q92953+Q96KK3+Q96L42+Q96PR1+Q96RP8+Q9BQ31+Q9H252+Q9H3M0+Q9NR82+Q9NS40+Q9NSA2+Q9NZV8+Q9UIX4+Q9UJ96+Q9UK17+Q9ULD8+Q9ULS6+Q9UQ05); assay: K+ channel (Volt-dependent) Ligand binding assay; format: protein assay; settings: compound concentration 10 uM
# [7] = biological target: 5-hydroxytryptamine receptor 2A (Homo sapiens) (UniProt P28223); assay: 5-HT2A (h) Ligand binding assay; settings: Compound concentration 10.0 uM
# [8] = biological target: P2Y receptor (Homo sapiens) (UniProt Q9H244+P51582+P47900+P41231+Q15391+Q15077+Q96G91+Q9BPV8); assay: P2Y Ligand binding assay; format: protein assay; settings: Compound concentration 10.0 uM
# Chain of D(1A) dopamine receptor (Homo sapiens) (P21728 whole entry): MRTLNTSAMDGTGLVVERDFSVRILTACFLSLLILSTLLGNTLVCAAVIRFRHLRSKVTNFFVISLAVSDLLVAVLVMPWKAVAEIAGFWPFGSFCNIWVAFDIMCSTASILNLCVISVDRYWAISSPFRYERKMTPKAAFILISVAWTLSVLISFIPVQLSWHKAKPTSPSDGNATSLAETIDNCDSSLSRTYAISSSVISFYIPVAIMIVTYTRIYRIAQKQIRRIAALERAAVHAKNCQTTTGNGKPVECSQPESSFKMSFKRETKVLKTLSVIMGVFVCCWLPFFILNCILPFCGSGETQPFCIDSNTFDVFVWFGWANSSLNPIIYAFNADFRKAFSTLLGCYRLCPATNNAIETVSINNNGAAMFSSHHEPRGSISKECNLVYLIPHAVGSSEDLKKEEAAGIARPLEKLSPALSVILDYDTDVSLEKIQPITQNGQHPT
# Chain of 5-hydroxytryptamine receptor 2A (Homo sapiens) (P28223 whole entry): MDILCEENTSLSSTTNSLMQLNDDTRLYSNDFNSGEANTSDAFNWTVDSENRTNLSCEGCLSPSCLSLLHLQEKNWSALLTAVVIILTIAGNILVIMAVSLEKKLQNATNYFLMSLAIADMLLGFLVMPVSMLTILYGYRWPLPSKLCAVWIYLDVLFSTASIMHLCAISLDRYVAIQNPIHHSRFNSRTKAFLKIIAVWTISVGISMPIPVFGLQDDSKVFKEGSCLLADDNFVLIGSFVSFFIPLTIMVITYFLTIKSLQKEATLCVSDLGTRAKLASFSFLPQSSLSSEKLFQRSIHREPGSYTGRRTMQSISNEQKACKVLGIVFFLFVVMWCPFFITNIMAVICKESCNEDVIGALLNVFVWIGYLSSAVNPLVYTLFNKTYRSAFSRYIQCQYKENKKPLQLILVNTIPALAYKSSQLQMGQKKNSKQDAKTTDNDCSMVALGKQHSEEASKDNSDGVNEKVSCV
# Chain of Neuropeptide Y receptor type 1 (Homo sapiens) (P25929 whole entry): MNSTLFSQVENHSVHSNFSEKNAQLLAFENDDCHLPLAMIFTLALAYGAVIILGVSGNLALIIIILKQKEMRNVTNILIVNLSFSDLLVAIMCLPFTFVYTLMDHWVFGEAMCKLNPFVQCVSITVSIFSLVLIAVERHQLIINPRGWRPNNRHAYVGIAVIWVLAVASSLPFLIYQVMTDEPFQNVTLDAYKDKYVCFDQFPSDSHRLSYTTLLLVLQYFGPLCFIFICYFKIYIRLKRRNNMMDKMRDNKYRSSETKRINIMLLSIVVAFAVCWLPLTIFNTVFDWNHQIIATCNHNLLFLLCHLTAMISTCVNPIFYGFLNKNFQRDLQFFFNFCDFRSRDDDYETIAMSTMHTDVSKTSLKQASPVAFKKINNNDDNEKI
# Chain of Neuropeptide Y receptor type 2 (Homo sapiens) (P49146 whole entry): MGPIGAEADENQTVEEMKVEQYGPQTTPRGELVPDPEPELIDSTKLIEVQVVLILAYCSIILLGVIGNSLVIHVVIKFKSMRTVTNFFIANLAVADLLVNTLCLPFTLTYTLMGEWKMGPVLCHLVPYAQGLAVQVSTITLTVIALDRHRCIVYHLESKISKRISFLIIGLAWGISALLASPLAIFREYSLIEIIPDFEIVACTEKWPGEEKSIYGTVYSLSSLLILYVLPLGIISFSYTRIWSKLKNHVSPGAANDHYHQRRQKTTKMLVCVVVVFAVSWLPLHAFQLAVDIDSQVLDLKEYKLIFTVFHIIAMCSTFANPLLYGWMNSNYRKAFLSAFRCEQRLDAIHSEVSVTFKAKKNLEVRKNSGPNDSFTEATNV
compound,measurement,setting,value
Cn1cncc1[C@](O)(COc1ccc(C#N)cc1-c1ccc(OC(F)(F)F)cc1)c1ccc(C#N)cc1 [ABT-100],inhibition,[1],< 10%
same,inhibition,[2],31%
same,inhibition,[3],< 10%
same,inhibition,[4],6.85%
same,inhibition,[5],< 10%
same,inhibition at 10 µM,[6],< 10% (not active)
same,inhibition,[7],15%
same,inhibition,[8],< 10%
